The source of these data is patent publication US20190135818A1 (SHANGHAI INSTITUTE OF MATERIA MEDICA, CHINESE ACADEMY OF …, priority 2016, published 2019).

The test system of data set [1] is human lung cancer NCI-H1581 transplanted tumor. As to the kind of experiment: Tumor growth inhibition in tumor-bearing mice (subcutaneously transplanted tumor). Format: in vivo, BALB/cA nude mice. The conditions noted are these: for T/C (%): 13th day; for TV (mm^3, mean ± SD) d0: d0, before dosing. On the procedure:
Before using, the compound was diluted with 5% Tween80 in normal saline to the desired concentration (light yellow suspension), and was prepared once a week.
Before using, the compound was diluted with 1% Tween 80 in normal saline to the desired concentration (white suspension), and was prepared once a week.
The cell strain was inoculated in the right axilla of the nude mice, and the amount of cells inoculated was 5×10^6/animal to form transplanted tumor, and passaged in vivo in nude mice by 1 generation before use.
The tumor tissue in the vigorous growth period was cut into 1.5 mm^3, and inoculated subcutaneously in the right axilla of the nude mice under aseptic conditions. The diameter of the subcutaneously transplanted in a nude mice was measured with a vernier caliper, and the animals were randomly grouped when the average volume of tumors was about 220 mm^3. […] The solvent control group was given an equal amount of normal saline. The diameter of the transplanted tumor was measured twice a week during the entire experiment, and the body weights of the mice were weighed. The calculation formula of tumor volume (TV) is: TV=1/2×a×b2, where a and b respectively represent the length and width of the tumor. The relative tumor volume (RTV) was calculated based on the measured results and the formula was: RTV=Vt/V0. Where V0 is the tumor volume measured before grouping and dosing (d0), and Vt is the tumor volume at each measurement.

Data set [2] concerns Human acute myeloid leukemia cell line KG1. As to the kind of experiment: FGFR-dependent tumor cell proliferation inhibition activity test (CCK-8, 72 h). Format: cell-based. From the text: Human acute myeloid leukemia cell line KG1 (FGFR1 fusion protein expressed in the cytoplasm, FGFR1-dependent tumor cell line) (ATCC, Cat. No. CCL-246), cell culture medium RPMI-1640 (Corning Cellgro, No. 10-040-CVR), fetal bovine serum (Life
Technologies, Cat. No. 10099-141) was purchased from the company; CCK-8 cell counting kit (DOJINDO, Cat. No. FK808). Adjustable wavelength microplate reader (Molecular Device, Cat. No. SpectraMax 190).
The inhibitory effect of the compound on KG1 proliferation was detected by CCK-8 Cell Counting Kit (Dojindo): Logarithmic growth phase cells were seeded in 96-well culture plate in appropriate density, 90 ul for each well. After cultured overnight, different concentrations of drugs were added and incubated for 72 h, while solvent control well was set (negative control). After the cells were treated by the compound for 72 h, 10 μL of CCK-8 reagent was added to each well. After incubated for 2-4 hours in a 37 □ incubator, the plate was read with SpectraMax 190 microplate reader at wavelength 450 nm.
The inhibition rate of compounds against cell proliferation is calculated by the following formula:
Inhibition rate (%)=(OD negative control well-OD administration well)/OD negative control well×100%.
(§1) The IC50 values were obtained by four-parameter regression analysis using the software supplied with the microplate reader.

In a further data set the target is T1, FGFR1 (Homo sapiens, UniProt P11362).
T1 construct: The reaction was initiated by addition of FGFR kinase domain recombinant protein diluted with 49 μL of reaction buffer; purchased Millipore 14-482
T1 sequence (P11362 478-767 limits assumed): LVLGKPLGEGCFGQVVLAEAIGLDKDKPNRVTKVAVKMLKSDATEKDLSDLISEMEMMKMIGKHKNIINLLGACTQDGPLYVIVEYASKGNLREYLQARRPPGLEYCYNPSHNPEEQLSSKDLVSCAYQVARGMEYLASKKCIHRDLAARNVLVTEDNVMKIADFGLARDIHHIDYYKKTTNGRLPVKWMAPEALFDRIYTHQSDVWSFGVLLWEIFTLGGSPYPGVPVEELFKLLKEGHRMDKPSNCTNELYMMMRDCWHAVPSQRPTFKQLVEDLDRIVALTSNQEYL
As to the kind of experiment: FGFR kinase inhibitory activity experiment (ELISA, Poly(Glu,Tyr)4:1 substrate). The data set is classed as biochemical. The conditions noted are these: kinase recombinant protein FGFR1, ATP 5 μM. On the procedure: Precision electronic balance (Sartotius, Cat. No. BP210D), adjustable wavelength microplate reader (Molecular Device, Cat. No. SpectraMax 190).
After the liquid was removed from the wells, the plate was washed for three times with 200 μL/well of T-PBS (PBS containing 0.1% Tween-20) for 5 minutes each time. The enzyme plate was dried at 37° C. in a dryer for 1-2 hours.
50 μL ATP solution diluted with reaction buffer (50 mM HEPES pH 7.4, 50 mM MgCl2, 0.5 mM MnCl2, 0.2 mM Na3VO4, 1 mM DTT) was added into each well at a 5 μM final concentration. The compounds were diluted to appropriate concentration in DMSO, 1 μL/well or containing the corresponding concentrations of DMSO (negative control wells). The reaction was initiated by addition of FGFR kinase domain recombinant protein diluted with 49 μL of reaction buffer. Two control wells without enzyme were set in each experiment. The plate was placed on a shaker (100 rpm) at 37° C. for 1 hour. The plate was washed with T-PBS for three times. 100 μL/well of primary antibody PY99 dilution was added, and incubated at 37° C. for 0.5 hour on a shaker (100 rpm). The plate was washed with T-PBS for three times. 100 μL/well of horseradish peroxidase-labeled secondary anti-goat anti-mouse IgG dilution was added and incubated at 37° C. for 0.5 hour on a shaker (100 rpm). The plate was washed with T-PBS for three times. 100 μL/well of 2 mg/mL OPD coloration solution (diluted with 0.1 M citric acid-sodium citrate buffer containing 0.03% H2O2 (pH=5.4)) was added, and incubated in darkness for 1-10 minutes at 25° C. The reaction was quenched with 50 μL/well 2M H2SO4, and read at 490 nm using a tunable microplate microplate reader SPECTRA MAX 190.
The inhibition ratio of the sample was determined by the following formula: […]
as §1

[3] abbreviates: AZD4547 12.5 mg/kg po qd/13, d13.

pIC50: −log10 of the molar value.

Consider `Cc1c(-c2c3c(N)n[nH]c(=O)c3nn2-c2ccc(NC(=O)/C=C/CN(C)C)cc2)oc2ccc(Cl)cc12` [Compound A26, (2E)-N-{4-[4-amino-3-(5-chloro-3-methyl-1-benzofuran-2-yl)-7-carbonyl-6,7-dihydro-2H-pyrazolo[3,4-d]pyridazin-2-yl]phenyl}-4-(dimethylamino)but-2-enamide], for which the “growth of subcutaneously transplanted tumors (in words)” value in data set [1] (50 mg/kg and 10 mg/kg intraperitoneally once a day for 13 days) was “significantly inhibited”. Moreover, in data set [1] (A26 10 mg/kg ip qd/13), the “T/C (%)” value is recorded as 19.88%; the “body weight (g) d0” value worked out at 18.4 g; the “TV (mm^3, mean ± SD) d0” value worked out at 161 ± 71 mm^3. In data set [1] (A26 10 mg/kg ip qd/13, d13), the “RTV (mean ± SD)” value was 4.17 ± 2.49; the “TV (mm^3, mean ± SD) d13” value was determined as 621 ± 289 mm^3; the “body weight (g) d13” value was determined as 21.3 g. In addition, in data set [1] (A26 50 mg/kg ip qd/13), the “T/C (%)” value turned out to be 2.20%; the “body weight (g) d0” value is 18.2 g; the “TV (mm^3, mean ± SD) d0” value is 159 ± 69 mm^3. In data set [1] (A26 50 mg/kg ip qd/13, d13), the “RTV (mean ± SD)” value came to 0.46 ± 0.19 and the “TV (mm^3, mean ± SD) d13” value turned out to be 66 ± 21 mm^3. Moreover, in data set [2] (Homo sapiens, KG-1, KG1 cells), the pIC50 is ≥ 7.00.
In the case of `C=CC(=O)N1CCC(n2nc3c(=O)[nH]nc(N)c3c2-c2oc3ccc(Cl)cc3c2C)CC1` [Compound A86, 2-(1-acryloylpiperidin-4-yl)-4-amino-3-(5-chloro-3-methylbenzofuran-2-yl)-2,6-dihydro-7H-pyrazolo[3,4-d]pyridazin-7-one], the pIC50 at FGFR1 is > 7.00; in data set [2] (Homo sapiens, KG-1, KG1 cells), ≥ 7.00.
The corresponding values for `C=CC(=O)N1CCCC(n2nc3c(=O)[nH]nc(N)c3c2-c2oc3ccc(Cl)cc3c2C)C1` (stereo not drawn) [Compound A87, 2-(1-acryloylpiperidin-3-yl)-4-amino-3-(5-chloro-3-methylbenzofuran-2-yl)-2,6-dihydro-7H-pyrazolo[3,4-d]pyridazine-7-one] are > 7.00 and ≥ 7.00.
Turning to `C=CC(=O)NC1CCC(n2nc3c(=O)[nH]nc(N)c3c2-c2oc3ccc(C)cc3c2C)CC1` (stereo not drawn) [Compound A88, N-(4-(4-amino-3-(3,5-dimethylbenzo-furan-2-yl)-7-carbonyl-6,7-dihydro-2H-pyrazolo[3,4-d]pyridazin-2-yl)cyclohexyl)acryloylamide], the figures for the pIC50 (on FGFR1; in data set [2] (KG1 cells)) were > 7.00 and ≥ 7.00, respectively.
In the case of AZD4547 [reference compound], in data set [1] (12.5 mg/kg orally once a day for 13 days), the “growth of subcutaneously transplanted tumors (in words)” value is reported as “partially inhibited”. Further, in data set [1] (AZD4547 12.5 mg/kg po qd/13), the “T/C (%)” value is recorded as 16.39% and the “TV (mm^3, mean ± SD) d0” value was 153 ± 50 mm^3. In addition, in data set [1] (setting [3]), the “RTV (mean ± SD)” value is given as 3.43 ± 2.61 and the “TV (mm^3, mean ± SD) d13” value is 517 ± 392 mm^3.
